# Measured values taken from publication PMC3351444, “Molecular Evolution of a Peptide GPCR Ligand Driven by Artificial Neural Networks” (PLoS ONE, 2012).
# Square brackets hold non-standard residues; d marks the D form. Peptide text beside a SMILES is read from it.
# Experiments:
# [1] = target: T1, human CMKLR1 (Homo sapiens, UniProt Q99788); assay: Ca2+ mobilization (CellLux imaging) agonist assay in HEK293A cells expressing CMKLR1 and Gα15; assay type: cell-based; settings: Ca2+ mobilization, CMKLR1, decimal comma; for EC50: NR where no EC50 is given, read-out: EC50
# T1 construct: host or cells: HEK293A (Invitrogen), stably expressing human Gα15
# T1 sequence (Q99788 1-373): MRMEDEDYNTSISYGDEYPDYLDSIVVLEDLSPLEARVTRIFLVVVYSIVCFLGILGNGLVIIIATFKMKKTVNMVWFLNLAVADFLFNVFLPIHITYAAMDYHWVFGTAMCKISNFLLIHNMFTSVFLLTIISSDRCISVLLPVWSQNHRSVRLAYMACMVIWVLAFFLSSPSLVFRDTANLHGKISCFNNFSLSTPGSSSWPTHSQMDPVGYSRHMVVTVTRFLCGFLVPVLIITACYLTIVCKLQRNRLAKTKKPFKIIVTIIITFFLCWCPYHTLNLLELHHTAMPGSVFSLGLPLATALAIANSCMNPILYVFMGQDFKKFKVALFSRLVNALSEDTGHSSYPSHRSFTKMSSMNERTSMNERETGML
# Protocol: HEK293A cells (Invitrogen) expressing CMKLR1 and Gα15 were seeded at 5*10^4 cells/well in a poly-D-lysine coated 96-well black well/clear bottom plate (BD Falcon) and cultured overnight. From eighteen to twenty-four hours later, cells were loaded with FLUO4-AM (Invitrogen). Then the cells were washed two times with C1 solution (130 mM NaCl, 5 mM KCl, 10 mM HEPES pH 7.4, 2 mM CaCl2, and 10 mM Glucose). After the final wash, a 100 µL of residual volume remained on the cells. Peptides were dissolved in 10% DMSO to a concentration of 1 mM and were diluted in C1 solution with 0.1 % BSA. They were aliquoted as 2x solutions in 96-well plates and were simultaneously transferred by the robotic system within the imager from the ligand plate to the cell plate. […] Fluorescence data was generated in duplicate and experiments were repeated for at least three times. […] For the calculation of concentration-response curves, signals of two wells receiving the same concentration of test substances were averaged and the fluorescence changes of corresponding buffer C1 wells were subtracted. Signals were normalized to background fluorescence. For the calculation of EC50 values, plots of amplitude versus concentrations were prepared in SigmaPlot 11.
# [2] = In vitro peptide stability in human serum (RP-HPLC); settings: for t1/2: metabolic stability in human serum; for half-life at 50 µg/mL: human, human serum, 25% (v/v) in RPMI
max response [1],t1/2 [2],EC50 [1],half-life at 50 µg/mL [2],Compound
"0,96 DF/F0",42 min,,,CC(C)[C@H](NC(=O)[C@@H](N)Cc1ccc(O)cc1)C(=O)N1CCC[C@H]1C(=O)NCC(=O)N[C@@H](CCC(N)=O)C(=O)N[C@@H](Cc1ccccc1)C(=O)N[C@@H](C)C(=O)N[C@@H](Cc1ccccc1)C(=O)N[C@H](Cc1ccccc1)C(=O)O [compound 35] (H-YVPGQFAF[dF]-OH; N-terminus assumed)
"0,94 DF/F0",,0.00723 µM,45 min,CC(C)C[C@H](NC(=O)[C@@H](N)Cc1ccc(O)cc1)C(=O)N1CCC[C@H]1C(=O)NCC(=O)N[C@@H](CCC(N)=O)C(=O)N[C@@H](Cc1ccccc1)C(=O)N[C@H](Cc1c[nH]c2ccccc12)C(=O)N[C@@H](Cc1ccccc1)C(=O)N[C@@H](CO)C(=O)O [compound 41] (H-YLPGQF[dW]FS-OH; N-terminus assumed)
"1,07 DF/F0",,0.00893 µM,30 min,CC(C)C[C@H](NC(=O)[C@@H](N)Cc1ccc(O)cc1)C(=O)N1CCC[C@H]1C(=O)NCC(=O)N[C@@H](CCC(N)=O)C(=O)N[C@@H](Cc1ccccc1)C(=O)N[C@@H](C)C(=O)N[C@H](Cc1ccccc1)C(=O)N[C@@H](Cc1ccccc1)C(=O)O [compound 42] (H-YLPGQFA[dF]F-OH; N-terminus assumed)
"0,73 DF/F0",,0.0929 µM,230 min,CC(C)C[C@H](NC(=O)[C@H](N)Cc1ccccc1)C(=O)N1CCC[C@H]1C(=O)NCC(=O)N[C@@H](CCC(N)=O)C(=O)N[C@@H](Cc1ccc(O)cc1)C(=O)N[C@@H](C)C(=O)N[C@@H](Cc1ccccc1)C(=O)N[C@@H](Cc1ccccc1)C(=O)O [compound 55] (H-[dF]LPGQYAFF-OH; N-terminus assumed)
"0,89 DF/F0",,0.119 µM,26 min,CC(C)C[C@H](NC(=O)[C@@H](N)Cc1ccc(O)cc1)C(=O)N1CCC[C@H]1C(=O)NCC(=O)N[C@@H](CCC(N)=O)C(=O)N[C@@H](Cc1ccccc1)C(=O)N[C@H](Cc1ccc(O)cc1)C(=O)N[C@@H](Cc1ccccc1)C(=O)N[C@@H](CO)C(=O)O [compound 57] (H-YLPGQF[dY]FS-OH; N-terminus assumed)
"0,81 DF/F0",,0.286 µM,33 min,CC(C)C[C@H](NC(=O)[C@@H]1CCCN1)C(=O)N1CCC[C@H]1C(=O)NCC(=O)N[C@@H](CCC(N)=O)C(=O)N[C@H](Cc1ccccc1)C(=O)N[C@@H](C)C(=O)N[C@@H](Cc1ccccc1)C(=O)N[C@@H](Cc1ccccc1)C(=O)O [compound 58] (H-PLPGQ[dF]AFF-OH; N-terminus assumed)
"0,73 DF/F0",,0.456 µM,41 min,CC(C)C[C@H](NC(=O)[C@@H](N)Cc1ccccc1)C(=O)N1CCC[C@H]1C(=O)NCC(=O)N[C@@H](CCC(N)=O)C(=O)NCC(=O)N[C@H](Cc1ccccc1)C(=O)N[C@@H](Cc1ccccc1)C(=O)N[C@@H](CO)C(=O)O [compound 61] (H-FLPGQG[dF]FS-OH; N-terminus assumed)
"0,66 DF/F0",,2.46 µM,31 min,CC(C)C[C@H](NC(=O)[C@@H](N)CCC(N)=O)C(=O)N1CCC[C@H]1C(=O)NCC(=O)N[C@@H](CCC(N)=O)C(=O)N[C@@H](Cc1ccccc1)C(=O)N[C@@H](C)C(=O)N[C@H](Cc1ccccc1)C(=O)N[C@@H](Cc1ccccc1)C(=O)O [compound 71] (H-QLPGQFA[dF]F-OH; N-terminus assumed)
"0,64 DF/F0",,2.61 µM,218 min,CC(C)C[C@H](NC(=O)[C@H](Cc1ccccc1)NC(=O)CNC(=O)[C@@H]1CCCN1C(=O)[C@H](CC(C)C)NC(=O)[C@@H](N)Cc1ccccc1)C(=O)N[C@@H](C)C(=O)N[C@@H](CC(C)C)C(=O)N1CCC[C@@H]1C(=O)O [compound 72] (H-FLPGFLAL[dP]-OH; N-terminus assumed)
"0,99 DF/F0",,5.58 µM,49 min,CC(C)C[C@H](NC(=O)[C@H](Cc1ccccc1)NC(=O)[C@H](CCC(N)=O)NC(=O)CNC(=O)[C@H]1CCCN1C(=O)[C@@H](CC(C)C)NC(=O)[C@@H](N)Cc1ccc(O)cc1)C(=O)N[C@@H](Cc1ccccc1)C(=O)N[C@@H](CO)C(=O)O [compound 75] (H-Y[dL][dP]GQFLFS-OH; N-terminus assumed)
"1,15 DF/F0",,233 µM,24 min,CC(C)C[C@H](NC(=O)[C@@H](N)Cc1ccc(O)cc1)C(=O)N1CCC[C@H]1C(=O)NCC(=O)N[C@@H](CCC(N)=O)C(=O)N[C@@H](C)C(=O)N[C@H](Cc1ccccc1)C(=O)N[C@@H](Cc1ccccc1)C(=O)N[C@@H](CCCCN)C(=O)O [compound 78] (H-YLPGQA[dF]FK-OH; N-terminus assumed)
"1,77 DF/F0",,0.00021 µM,36 min,CC(C)C[C@H](NC(=O)[C@@H](N)Cc1ccc(O)cc1)C(=O)N1CCC[C@H]1C(=O)NCC(=O)N[C@@H](CCC(N)=O)C(=O)N[C@@H](Cc1ccc(O)cc1)C(=O)N[C@@H](C)C(=O)N[C@@H](Cc1ccccc1)C(=O)N[C@H](Cc1ccccc1)C(=O)O [compound 80] (H-YLPGQYAF[dF]-OH; N-terminus assumed)
"1,61 DF/F0",,0.00362 µM,77 min,CC(C)C[C@H](NC(=O)[C@H](N)Cc1ccc(O)cc1)C(=O)N1CCC[C@H]1C(=O)NCC(=O)N[C@@H](CCC(N)=O)C(=O)N[C@@H](Cc1ccc(O)cc1)C(=O)N[C@@H](C)C(=O)N[C@@H](Cc1ccccc1)C(=O)N[C@@H](CO)C(=O)O [compound 82] (H-[dY]LPGQYAFS-OH; N-terminus assumed)
"1,82 DF/F0",1157 min,,,CC(C)C[C@H](NC(=O)[C@H](N)Cc1ccccc1)C(=O)N1CCC[C@H]1C(=O)NCC(=O)N[C@@H](CCC(N)=O)C(=O)N[C@@H](Cc1ccc(O)cc1)C(=O)N[C@@H](C)C(=O)N[C@@H](Cc1ccccc1)C(=O)N[C@H](Cc1ccccc1)C(=O)O [compound 83] (H-[dF]LPGQYAF[dF]-OH; N-terminus assumed)
"1,84 DF/F0",21 min,,,C[C@H](NC(=O)[C@H](Cc1ccc(O)cc1)NC(=O)[C@H](CCC(N)=O)NC(=O)CNC(=O)[C@@H]1CCCN1C(=O)[C@H](CCCNC(=N)N)NC(=O)[C@@H](N)Cc1ccc(O)cc1)C(=O)N[C@@H](Cc1ccccc1)C(=O)N[C@H](CO)C(=O)O [compound 84] (H-YRPGQYAF[dS]-OH; N-terminus assumed)
"1,78 DF/F0",,0.0117 µM,75 min,CSCC[C@H](NC(=O)[C@H](N)Cc1ccc(O)cc1)C(=O)N1CCC[C@H]1C(=O)NCC(=O)N[C@@H](CCC(N)=O)C(=O)N[C@@H](Cc1ccc(O)cc1)C(=O)N[C@@H](C)C(=O)N[C@@H](Cc1ccccc1)C(=O)N[C@@H](CO)C(=O)O [compound 85] (H-[dY]MPGQYAFS-OH; N-terminus assumed)
"1,57 DF/F0",,0.0218 µM,24 min,CC(C)[C@H](NC(=O)[C@@H](N)Cc1ccc(O)cc1)C(=O)N1CCC[C@H]1C(=O)NCC(=O)N[C@@H](CCC(N)=O)C(=O)N[C@@H](Cc1ccc(O)cc1)C(=O)N[C@@H](C)C(=O)N[C@@H](Cc1ccccc1)C(=O)N[C@H](CO)C(=O)O [compound 86] (H-YVPGQYAF[dS]-OH; N-terminus assumed)
"1,62 DF/F0",,0.0275 µM,49 min,CC(C)C[C@H](NC(=O)[C@@H](N)Cc1ccc(O)cc1)C(=O)N1CCC[C@H]1C(=O)NCC(=O)N[C@@H](CCC(N)=O)C(=O)N[C@@H](Cc1ccc(O)cc1)C(=O)N[C@@H](C)C(=O)N[C@@H](Cc1ccc(O)cc1)C(=O)N[C@H](CO)C(=O)O [compound 87] (H-YLPGQYAY[dS]-OH; N-terminus assumed)
"1,51 DF/F0",,0.0351 µM,891 min,C[C@H](NC(=O)[C@H](Cc1ccc(O)cc1)NC(=O)[C@H](CCC(N)=O)NC(=O)CNC(=O)[C@@H]1CCCN1C(=O)[C@@H](Cc1ccc(O)cc1)NC(=O)[C@@H](N)Cc1ccc(O)cc1)C(=O)N[C@@H](Cc1ccccc1)C(=O)N[C@H](CO)C(=O)O [compound 88] (H-Y[dY]PGQYAF[dS]-OH; N-terminus assumed)
"1,76 DF/F0",,0.0492 µM,73 min,CC(C)C[C@H](NC(=O)[C@@H](N)Cc1ccccc1)C(=O)N1CCC[C@H]1C(=O)NCC(=O)N[C@@H](CCC(N)=O)C(=O)N[C@@H](Cc1ccccc1)C(=O)N[C@H](Cc1c[nH]c2ccccc12)C(=O)N[C@@H](Cc1ccccc1)C(=O)N[C@H](CO)C(=O)O [compound 89] (H-FLPGQF[dW]F[dS]-OH; N-terminus assumed)
